tested on: Lung cancer cell line NCI-H358 containing KRas G12C mutation; assay: Assay for cell proliferation (Cell-titer Glo, 5 days); format: cell-based, human; settings: Homo sapiens, NCI-H358, 120 h, NCI-H358, 5 days, Cell-titer Glo; read-out: IC50 (nM), Inhibition of NCI-H358 Cell Proliferation
Outline: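 NCI-H358 (KRas G12C) cells, 2000 per well, attached overnight at 37 °C, 5% CO2, then treated with compound for 5 days at 0.5% DMSO final. Proliferation measured by CellTiter-Glo luminescence after 10 min at RT.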

Row | Compound | IC50 [nM]
1 | C=CC(=O)N1CCN(c2nc(=O)n(-c3c(C(C)C)nc4c(ncn4C)c3C)c3nc(-c4ccccc4F)c(Cl)cc23)[C@@H](C)C1 [Compound 65] | 17.6
2 | C=CC(=O)N1CCN(c2nc(=O)n(-c3c(C(C)C)cc4scnc4c3C)c3nc(-c4ccccc4F)c(Cl)cc23)[C@@H](C)C1 [Compound 66] | 19.9
3 | C=CC(=O)N1CCN(c2nc(=O)n(-c3c(C(C)C)cc4c(ncn4C)c3C)c3nc(-c4ccccc4F)c(Cl)cc23)[C@@H](C)C1 [Compound 67] | 46.5
4 | C=CC(=O)N1CCN(c2nc(=O)n(-c3c(C)cc4scnc4c3C(C)C)c3nc(-c4ccccc4F)c(Cl)cc23)[C@@H](C)C1 [Compound 68] | 344
5 | C=CC(=O)N1CCN(c2nc(=O)n(-c3cc4ncn(C)c4nc3C(C)C)c3nc(-c4ccccc4F)c(Cl)cc23)[C@@H](C)C1 [Compound 70] | 15.1
6 | C=CC(=O)N1CCN(c2nc(=O)n(-c3ccc4scnc4c3C(C)C)c3nc(-c4ccccc4F)c(Cl)cc23)[C@@H](C)C1 [Compound 71] | 20.1
7 | C=CC(=O)N1CCN(c2nc(=O)n(-c3c(C(C)C)nc4c(ncn4C)c3C)c3nc(-c4ccccc4F)c(F)cc23)[C@@H](C)C1 [Compound 73] | 66
8 | C=CC(=O)N1CCN(c2nc(=O)n(-c3c(C4CC4)nc(OC)nc3C3CC3)c3nc(-c4c(N)cccc4F)c(F)cc23)[C@@H](C)C1 [Compound 74] | 5.7
9 | C=CC(=O)N1CCN(c2nc(=O)n(-c3c(C(C)C)nc(C)nc3C(C)C)c3nc(-c4c(O)cccc4F)c(F)cc23)[C@@H](C)C1 [Compound 77] | 8.6
10 | C=CC(=O)N1CCN(c2nc(=O)n(-c3c(C(C)C)nc(C)nc3C(C)C)c3nc(-c4c(N)cccc4F)c(F)cc23)[C@@H](C)C1 [Compound 78] | 10.4
11 | C=CC(=O)N1C[C@H](C)N(c2nc(=O)n(-c3c(C4CC4)nc(OC)nc3C3CC3)c3nc(-c4c(O)cccc4F)c(F)cc23)C[C@H]1C [Compound 79] | 12.9
12 | C=CC(=O)N1C[C@H](C)N(c2nc(=O)n(-c3c(C4CC4)nc(OC)nc3C3CC3)c3nc(-c4c(N)cccc4F)c(F)cc23)C[C@H]1C [Compound 80] | 8.1
13 | C=CC(=O)N1CCN(c2nc(=O)n(-c3c(C)cc(OC)nc3C(C)C)c3nc(-c4c(O)cccc4F)c(F)cc23)[C@@H](C)C1 [Compound 81] | 35.9
14 | C=CC(=O)N1CCN(c2nc(=O)n(-c3c(C(C)C)nc(N4CCNCC4)nc3C(C)C)c3nc(-c4c(O)cccc4F)c(Cl)cc23)[C@@H](C)C1 [Compound 82] | 10.8
15 | C=CC(=O)N1CCN(c2nc(=O)n(-c3c(C(C)C)nc(N4CCNCC4)nc3C(C)C)c3nc(-c4c(N)cccc4F)c(Cl)cc23)[C@@H](C)C1 [Compound 83] | 5.9
16 | C=CC(=O)N1C[C@H](C)N(c2nc(=O)n(-c3c(C(C)C)nc(N4CCNCC4)nc3C(C)C)c3nc(-c4ccccc4F)c(Cl)cc23)C[C@H]1C [Compound 84] | 6.9
17 | C=CC(=O)N1C[C@H](C)N(c2nc(=O)n(-c3c(C4CC4)nc(N4CCNCC4)nc3C3CC3)c3nc(-c4ccccc4F)c(Cl)cc23)C[C@H]1C [Compound 85] | 9.7
18 | C=CC(=O)N1C[C@H](C)N(c2nc(=O)n(-c3c(C4CC4)nc(N4CCNCC4)nc3C3CC3)c3nc(-c4c(O)cccc4F)c(Cl)cc23)C[C@H]1C [Compound 86] | 8.6
19 | C=CC(=O)N1C[C@H](C)N(c2nc(=O)n(-c3c(C(C)C)nc(N4CCNCC4)nc3C(C)C)c3nc(-c4c(N)cccc4F)c(Cl)cc23)C[C@H]1C [Compound 87] | 4.1
20 | C=CC(=O)N1CCN(c2nc(=O)n(-c3c(C4CC4)nc(N4CCNCC4)nc3C3CC3)c3nc(-c4c(O)cccc4F)c(Cl)cc23)[C@@H](C)C1 [Compound 88] | 21.2
21 | C=CC(=O)N1CCN(c2nc(=O)n(-c3c(C4CC4)nc(N4CCN(C)CC4)nc3C3CC3)c3nc(-c4c(O)cccc4F)c(Cl)cc23)[C@@H](C)C1 [Compound 89] | 1.5
22 | C=CC(=O)N1CCN(c2nc(=O)n(-c3c(C4CC4)nc(N4CCN(C)CC4)nc3C3CC3)c3nc(-c4ccccc4F)c(Cl)cc23)[C@@H](C)C1 [Compound 91] | 7.8
23 | C=CC(=O)N1CCN(c2nc(=O)n(-c3c(C4CC4)nc(N4CCNCC4)nc3C3CC3)c3nc(-c4c(N)cccc4F)c(Cl)cc23)[C@@H](C)C1 [Compound 92] | 2.8
24 | C=CC(=O)N1CCN(c2nc(=O)n(-c3c(C4CC4)nc(N4CCN(C)CC4)nc3C3CC3)c3nc(-c4c(N)cccc4F)c(Cl)cc23)[C@@H](C)C1 [Compound 93] | 1.8
25 | C=CC(=O)N1C[C@H](C)N(c2nc(=O)n(-c3c(C(C)C)nc(N4CCNCC4)nc3C(C)C)c3nc(-c4ccccc4F)c(F)cc23)C[C@H]1C [Compound 94] | 37.5
26 | C=CC(=O)N1C[C@H](C)N(c2nc(=O)n(-c3c(C(C)C)nc(N4CCNCC4)nc3C(C)C)c3nc(-c4c(O)cccc4F)c(F)cc23)C[C@H]1C [Compound 95] | 14.6

Row | Compound | IC50 [nM]
27 | C=CC(=O)N1C[C@H](C)N(c2nc(=O)n(-c3c(C(C)C)nc(N4CCNCC4)nc3C(C)C)c3nc(-c4c(N)cccc4F)c(F)cc23)C[C@H]1C [Compound 96] | 10.8
28 | C=CC(=O)N1C[C@H](C)N(c2nc(=O)n(-c3c(C(C)C)nc(N4CCN(C)CC4)nc3C(C)C)c3nc(-c4c(N)cccc4F)c(F)cc23)C[C@H]1C [Compound 97] | 7.3
29 | C=CC(=O)N1C[C@H](C)N(c2nc(=O)n(-c3c(C4CC4)nc(N4CCNCC4)nc3C3CC3)c3nc(-c4c(N)cccc4F)c(F)cc23)C[C@H]1C [Compound 98] | 7.4
30 | C=CC(=O)N1C[C@H](C)N(c2nc(=O)n(-c3c(C4CC4)nc(N4CCN(C)CC4)nc3C3CC3)c3nc(-c4c(N)cccc4F)c(F)cc23)C[C@H]1C [Compound 99] | 5.8
31 | C=CC(=O)N1C[C@H](C)N(c2nc(=O)n(-c3c(C4CC4)nc(N4CCNCC4)nc3C3CC3)c3nc(-c4c(O)cccc4F)c(F)cc23)C[C@H]1C [Compound 100] | 14.1
32 | C=CC(=O)N1C[C@H](C)N(c2nc(=O)n(-c3c(C4CC4)nc(N4CCN(C)CC4)nc3C3CC3)c3nc(-c4c(O)cccc4F)c(F)cc23)C[C@H]1C [Compound 101] | 25.8
33 | C=CC(=O)N1C[C@H](C)N(c2nc(=O)n(-c3c(C4CC4)nc(N4CCNCC4)nc3C3CC3)c3nc(-c4ccccc4F)c(F)cc23)C[C@H]1C [Compound 102] | 37.4
34 | C=CC(=O)N1C[C@H](C)N(c2nc(=O)n(-c3c(C4CC4)nc(N4CCN(C)CC4)nc3C3CC3)c3nc(-c4ccccc4F)c(F)cc23)C[C@H]1C [Compound 103] | 47.6
35 | C=CC(=O)N1CCN(c2nc(=O)n(-c3c(C(C)C)nc(C4CC4)nc3C(C)C)c3nc(-c4c(N)cccc4F)c(F)cc23)[C@@H](C)C1 [Compound 105] | 8.8
36 | C=CC(=O)N1CCN(c2nc(=O)n(-c3c(C(C)C)nc(N)nc3C(C)C)c3nc(-c4c(O)cccc4F)c(Cl)cc23)[C@@H](C)C1 [Compound 106] | 10.2
37 | C=CC(=O)N1C[C@H](C)N(c2nc(=O)n(-c3c(C(C)C)nc(N)nc3C(C)C)c3nc(-c4c(O)cccc4F)c(Cl)cc23)C[C@H]1C [Compound 107] | 5.2
38 | C=CC(=O)N1CCN(c2nc(=O)n(-c3c(C(C)C)nc(N)nc3C(C)C)c3nc(-c4c(O)cccc4F)c(F)cc23)[C@@H](C)C1 [Compound 108] | 46.5
39 | C=CC(=O)N1C[C@H](C)N(c2nc(=O)n(-c3c(C(C)C)nc(N)nc3C(C)C)c3nc(-c4c(O)cccc4F)c(F)cc23)C[C@H]1C [Compound 109] | 12.3
40 | C=CC(=O)N1CCN(c2nc(=O)n(-c3c(C4CC4)nc(N)nc3C3CC3)c3nc(-c4c(O)cccc4F)c(Cl)cc23)[C@@H](C)C1 [Compound 110] | 10.1
41 | C=CC(=O)N1C[C@H](C)N(c2nc(=O)n(-c3c(C4CC4)nc(N)nc3C3CC3)c3nc(-c4c(O)cccc4F)c(Cl)cc23)C[C@H]1C [Compound 111] | 6.3
42 | C=CC(=O)N1CCN(c2nc(=O)n(-c3c(C4CC4)nc(N)nc3C3CC3)c3nc(-c4c(O)cccc4F)c(F)cc23)[C@@H](C)C1 [Compound 112] | 32.1
43 | C=CC(=O)N1C[C@H](C)N(c2nc(=O)n(-c3c(C4CC4)nc(N)nc3C3CC3)c3nc(-c4c(O)cccc4F)c(F)cc23)C[C@H]1C [Compound 113] | 48.5
44 | C=CC(=O)N1C[C@H](C)N(c2nc(=O)n(-c3c(C4CC4)nc(C)nc3C3CC3)c3nc(-c4cccc5[nH]nc(N)c45)c(F)cc23)C[C@H]1C [Compound 114] | 497
45 | C=CC(=O)N1C[C@H](C)N(c2nc(=O)n(-c3c(C4CC4)nc(N4CCNCC4)nc3C3CC3)c3nc(-c4c(N)cccc4F)c(Cl)cc23)C[C@H]1C [Compound 115] | 4.6
46 | C=CC(=O)N1CCN(c2nc(=O)n(-c3c(C4CC4)nc(N4CCNCC4)nc3C3CC3)c3nc(-c4ccccc4F)c(Cl)cc23)[C@@H](C)C1 [Compound 116] | 15.8
47 | C=CC(=O)N1CCN(c2nc(=O)n(-c3c(C(C)C)nc4ocnc4c3C)c3nc(-c4ccccc4F)c(Cl)cc23)[C@@H](C)C1 [Compound 117] | 12.9
48 | C=CC(=O)N1CCN(c2nc(=O)n(-c3c(C(C)C)nc(C(F)(F)F)nc3C(C)C)c3nc(-c4c(N)cccc4F)c(F)cc23)[C@@H](C)C1 [Compound 118] | 40.2
49 | C=CC(=O)N1CCN(c2nc(=O)n(-c3c(C4CC4)nc(OC(F)F)nc3C3CC3)c3nc(-c4c(N)cccc4F)c(F)cc23)[C@@H](C)C1 [Compound 119] | 9.6
50 | C[C@H]1CN(C(=O)/C=C/CN2CC(F)C2)CCN1c1nc(=O)n(-c2c(C3CC3)ncnc2C2CC2)c2nc(-c3c(N)cccc3F)c(Cl)cc12 [Compound 120] | 146
51 | C=CC(=O)N1C[C@H](C)N(c2nc(=O)n(-c3c(C(C)C)nc(C(=O)O)nc3C(C)C)c3nc(-c4ccccc4F)c(F)cc23)C[C@H]1C [Compound 121] | > 3000

same assay, conditions: NCI-H358, 5 days, Cell-titer Glo; read-out: IC50 (nM), Inhibition of NCI-H358 Cell Proliferation

Row | Compound | IC50 [nM]
52 | C=CC(=O)N1CCN(c2nc(=O)n(-c3c(C)cc4c(ncn4C)c3C(C)C)c3nc(-c4ccccc4F)c(Cl)cc23)[C@@H](C)C1 [Compound 69] | 7.8

same assay, conditions: NCI-H358 IC50 comparison

Row | Compound | fold more potent: 2-amino-6-fluoro-phenyl compound vs. corresponding 2-fluoro-phenyl compound at R8
53 | C=CC(=O)N1CCN(c2nc(=O)n(-c3c(C(C)C)nc(C)nc3C(C)C)c3nc(-c4c(N)cccc4F)c(F)cc23)[C@@H](C)C1 [Compound 78] | only slightly more potent

Source: US12110289B2, “Heterocyclic compounds, preparation methods and uses thereof” (InventisBio Co., Ltd., priority 2020, dated 2024)
